Measurements: patent US10040803B2, “4-((2-acrylamidophenyl)amino)thieno[3,2-D]pyrimidine-7-carboxamide derivatives as protein kinase inhibitors” (KOREA INSTITUTE OF SCIENCE AND TECHNOLOGY, priority 2016, dated 2018)

Assays:
[1] = test system: Hep3B cells; test: Inhibition of growth of liver cancer cell line Hep3B (CellTiter-Glo); type: cell-based; settings: Homo sapiens, CellTiter-Glo luminescence
Procedure: (§1) The inhibition activity for liver cancer cell lines was measured for 4-((2-acrylamido-6-methylphenyl)amino)-N-(3,5-dimethoxyphenyl)thieno[3,2-d]pyrimidine-7-carboxamide (Compound 1) and 4-((2-acrylamido-6-methylphenyl)amino)-N-(2-methyl-5-(3-(trifluoromethyl)benzamido)phenyl)thieno[3,2-d]pyrimidine-7-carboxamide (Compound 2) synthesized in the present invention.
(§2) Hep3B or HUH7 cells were seeded onto a 96-well plate with 5,000 cells per well and then cultured overnight in F-12K Nutrient Mixture (Life Technologies Corporation) containing 10% FBS at 37° C. in the presence of 5% CO2. The test compound dissolved in dimethyl sulfoxide was diluted to a final concentration of 1-50 μM and then added to the 96-well plate. After culturing at 37° C. in the presence of 5% CO2 and adding a cell count reagent (CellTiter-Glo® Luminescent Cell Viability Assay), luminescence intensity was measured using a luminescence measuring apparatus (Envision).

[2] = test system: HUH7 cells; test: Inhibition of growth of liver cancer cell line HUH7 (CellTiter-Glo); type: cell-based; settings: Homo sapiens, Huh-7, CellTiter-Glo luminescence
Procedure: as §1, §2

Compound | GI50 [1] [µM] | GI50 [2] [µM]
C=CC(=O)Nc1cccc(C)c1Nc1ncnc2c(C(=O)Nc3cc(OC)cc(OC)c3)csc12 [Compound 1, 4-((2-acrylamido-6-methylphenyl)amino)-N-(3,5-dimethoxyphenyl)thieno[3,2-d]pyrimidine-7-carboxamide] | < 10 | < 10
C=CC(=O)Nc1cccc(C)c1Nc1ncnc2c(C(=O)Nc3cc(NC(=O)c4cccc(C(F)(F)F)c4)ccc3C)csc12 [Compound 2, 4-((2-acrylamido-6-methylphenyl)amino)-N-(2-methyl-5-(3-(trifluoromethyl)benzamido)phenyl)thieno[3,2-d]pyrimidine-7-carboxamide] | < 1 | < 1
